Consider two molecules from patent publication US7601739B2, “Compounds having antiestrogenic and tissue selective estrogenic properties, and compounds with anti-androgenic properties for treatment of prostate cancer and androgen receptor dependent diseases” (Virgina Commonwealth University, priority 2006, dated 2009).

Assay [1] concerns the target T1, hERα (Homo sapiens, UniProt P03372).
T1 construct: mammalian expression plasmid containing full length human ER cDNA, pCMV-hER; expressed in transfected cells; host or cells: MCF-7 human breast cancer cells
T1 sequence (P03372 1-595): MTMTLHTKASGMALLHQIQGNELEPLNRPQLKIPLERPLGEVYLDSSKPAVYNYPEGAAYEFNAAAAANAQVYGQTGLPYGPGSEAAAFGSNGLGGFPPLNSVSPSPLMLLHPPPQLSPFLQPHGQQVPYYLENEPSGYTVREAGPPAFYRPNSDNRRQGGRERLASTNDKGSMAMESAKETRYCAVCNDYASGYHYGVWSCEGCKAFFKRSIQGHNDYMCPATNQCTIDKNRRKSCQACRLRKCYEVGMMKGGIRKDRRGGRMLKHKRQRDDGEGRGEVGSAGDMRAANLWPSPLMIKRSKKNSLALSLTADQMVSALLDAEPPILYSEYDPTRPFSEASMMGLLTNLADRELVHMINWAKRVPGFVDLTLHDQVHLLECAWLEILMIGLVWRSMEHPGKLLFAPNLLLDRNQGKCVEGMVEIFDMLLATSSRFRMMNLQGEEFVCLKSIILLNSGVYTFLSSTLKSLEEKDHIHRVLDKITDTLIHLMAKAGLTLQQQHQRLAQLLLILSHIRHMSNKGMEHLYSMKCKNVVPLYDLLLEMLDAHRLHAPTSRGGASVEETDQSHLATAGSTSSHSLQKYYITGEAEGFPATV
Briefly: Transient transfection reporter assay for hERα in MCF-7 cells. It counts as cell-based. Also on record: Relative Estrogenic Activity: dose or concentration left out as unconfirmed. The procedure:
For the transient transfection reporter assays, the cells were plated in triplicate in 12-well plates at a density of 300000 cells/well in the phenol red-free DMEM (GIBCO/BRL, Grand Island, N.Y.) supplemented with 10% charcoal-stripped fetal bovine serum (Hyclone, Logan, Utah), Penicillin (100 unit/ml)/Streptomycin ([…]), 2 mML-glutamine and 1 mM sodium Pyruvate. 24 hrs later, the cells were transfected with three plasmids by using Superfect transfection kit (Qiagen, Valencia, Calif.). For the detection of hER activity, cells were transfected with 2 g hER expression plasmid (pCMV-ER ), 6 g luciferase reporter plasmid containing estrogen receptor response element (PGL-TATA-Luc), and 600 ng normalization control, β-galactosidase reporter plasmid (pCMV ). For the detection of hER activity, cells were transfected with 3 ug hER expression plasmid (pcDNA3.1-hER), 6 g luciferase reporter plasmid containing estrogen receptor response element (PGL-TATA-Luc), and 600 ng pCMV. For determining the influence of ER's major coactivator in breast, AIB 1, 2 g pcDNA3.1-AIB1 was added into the transfection plasmid solution mentioned previously.
The transfected cells were rinsed with PBS and treated with various concentrations of test molecules and one […] (vehicle, DMSO or methanol) in phenol red-free culture medium. After incubation for further 24 hrs, the cells were washed with PBS and lysed with lysis buffer (Pierce, Rockford, Ill.). The lysate was used to determine the luciferase activity for ER's activity and the β-galactosidase activity for the normalization of transfection efficiency.
For the luciferase activity assay, 20 μl of lysate and 100 μl luciferase assay buffer (Promega, Madison, Wis.) were added into a well of 96-well plate. The luminescence was detected by using luminescence microplate reader, LumiCount (Packard, Boston, Mass.). For the β-galactosidase activity assay, […] β-galactosidase assay buffer (Clontech, Palo Alto, Calif.) were added into a well of 96-well plate. The β-galactosidase activity was measured as luminescence strength by using luminescence microplate reader, LumiCount (Packard, Boston, Mass.). The normalized reporter activity was calculated by the luciferase activity divided by that of β-galactosidase.
The transient transfection reporter assay was used to determine the estrogenic or antiestrogenic activity of tested compounds in employed human breast cancer cells, MCF-7 cells that are cotransfected with hERα expression and reporter plasmids. […] […] The estrogenic (antiestrogenic) activity was determined by dividing the luciferase activity by the β-galactosidase activity. To determine the influence of estrogen receptor's major coactivator in breast cancer, AIB1, for the compounds' estrogenic activity, the expression vector of AIB1 was additionally cotransfected with the plasmids mentioned above.
For orientation: In a reporter assay the amount or activity of a reporter protein is the signal.

The target in assay [2] is T2, hERα (Homo sapiens, UniProt P03372).
T2 construct: the full length hERα was inserted into pGAD-GAL4 and pGBD-GAL4 vectors; expressed in transfected cells; host or cells: S. cerevisiae Y190 transformed with pGBT-hER (pGBKT7) and pGAD-hER (pGADT7)
T2 sequence (P03372 1-595) 1: T1 sequence (P03372 1-595)
T2 sequence (P03372 1-595) 2: T1 sequence (P03372 1-595)
Briefly: Yeast two-hybrid and filter lift assay of hERα dimerization. It counts as cell-based. The procedure:
The transformed yeasts with yeast two-hybrid vectors were cultured in synthetic medium lacking trytophan, and leucine. […] After that, the membranes were soaked in 0.4 ml Z-buffer/Xgal (60 mM Na2HPO4, 40 mM NaH2PO410 mM KCl, 1 mM MgSO4, 0.1% SDS, 50 mM -mercaptoethanol, 20 mM Xgal). The pictures of the results were taken within 2 and 3 hours after the -galactosidase assay was processed.
Dimerization of estrogen receptor plays an essential role in regulating estrogen receptor's functions including DNA binding, transactivation, and coactivator recruitment. In this study, yeast two hybrid and filter lift assays were used to determine the ability of compounds 2 and 6 to interrupt the dimerization of hERα. For setting up yeast two hybrid assay, the full length hERα was inserted into pGAD-GAL4 and pGBD-GAL4 vectors. In pGBD-GAL4, hERα was fused to the GAL4 DNA binding domain through its N terminus. In pGAD-GA14, hERα was fused to the GAL4 activation domain through its N terminus. When the dimerization of hERα occurs mainly through its C terminus, the GAL4 DNA binding domain binds to the repeated GAL4 response element located in front of the β-gal reporter gene and the whole complex, GAL4-BD/hERα/hERα/GAL4-AD, turns on the synthesis of the product of β-gal reporter gene. […] Filter lift assay in which X-gal was used, was employed to qualitatively determine the activity of β-galactosidase.

The next assay relates to hER. Briefly: Fluorescence-based competitive binding assay for hER (displacement of fluormone ES2). Also on record: species or system human. The note with it: RBA = IC50 of tamoxifen/IC50 of test molecule; tamoxifen set at 1. The procedure: The estrogen receptor competitor assay kits (Panvera, Madison, Wis.) were used to determine the ability of test molecules to displace the fluormone, ES2, from hER -ES2 or hER -ES2 complex. Serial dilutions of each test molecule were prepared in methanol or DMSO. The recombinant hER or hER (7 nM) was preincubated with ES2 (1 nM) in screening buffer. After the preincubation, the test molecules and ER-ES2 complex solution were added into the 96-well microplate to produce a final volume of 100 μl per well. The reaction was incubated at room temperature for 1 hr and the polarization values were measured by using fluorescence microplate reader, Polarion (Tecan, Research Triangle Park, N.C.) with excitation wavelength 495 nm and emission wavelength 535 nm. The polarization value versus test molecule concentration curves was analyzed by graphfit software to generate IC50 values.
In this assay, recombinant hER and the commercial synthetic estrogen, ES2 containing fluorescence polarization property, are used. This assay is a homogenous assay. When the assay solution only contains ES2, the solution exerts weak fluorescence polarization property due to the quick rotation of free ES2 molecule. […] Addition of the antiestrogen to the ES2/hER displaces ES2 from hER and results in the whole solution exerting less fluorescence polarization property than the solution without antiestrogen.

For another assay, the system named is MDA-MB-231 cells. Kind of assay: hER negative breast cancer cell proliferation assay. It counts as cell-based, human. Particulars: hER negative cell line. The method, then:
(§1) MCF-7 or MDA-MB-231 cells were inoculated into 12-well culture plates at 10000 cells in 2 ml maintained medium per well. Cells were allowed to attach to the bottom for 24 hrs incubation, then the seeding medium was removed and replaced by the experimental medium (phenol red-free DMEM supplemented with 5% charcoal-stripped fetal bovine serum and Penicillin (100 unit/ml)/Streptomycin ([…])). After 24 hr incubation, the test molecules dissolved in DMSO were added in the wells. […] The culture was continued for 3 days and the medium and tested compounds were replaced every two days. The final cell numbers were estimated with CellTiter proliferation assay kit (Promega, Madison, Wis.) by measuring the absorbance at 570 nm, which is directly proportional to the number of living cells in the culture.
In this assay, MDA-MB-231 breast cancer cell line, a hER negative cell line, was used. DMSO was used as reference.

In the next assay the test system is MCF-7 cells. Briefly: hERα positive breast cancer cell proliferation assay. Type of assay: cell-based, human. The procedure: as §1
MCF-7 cell line was used to perform this assay and the description of this assay as mentioned above. […] DMSO was used as reference.

The next assay deals with T3, mutant hART877A (Homo sapiens, UniProt P10275, T878A).
T3 construct: LNCaP cells expressing a novel mutant hART877A; endogenous in cells; host or cells: LNCaP prostate cancer cells (transfected only with reporter plasmids, as far as printed)
T3 sequence (P10275 1-920 T878A): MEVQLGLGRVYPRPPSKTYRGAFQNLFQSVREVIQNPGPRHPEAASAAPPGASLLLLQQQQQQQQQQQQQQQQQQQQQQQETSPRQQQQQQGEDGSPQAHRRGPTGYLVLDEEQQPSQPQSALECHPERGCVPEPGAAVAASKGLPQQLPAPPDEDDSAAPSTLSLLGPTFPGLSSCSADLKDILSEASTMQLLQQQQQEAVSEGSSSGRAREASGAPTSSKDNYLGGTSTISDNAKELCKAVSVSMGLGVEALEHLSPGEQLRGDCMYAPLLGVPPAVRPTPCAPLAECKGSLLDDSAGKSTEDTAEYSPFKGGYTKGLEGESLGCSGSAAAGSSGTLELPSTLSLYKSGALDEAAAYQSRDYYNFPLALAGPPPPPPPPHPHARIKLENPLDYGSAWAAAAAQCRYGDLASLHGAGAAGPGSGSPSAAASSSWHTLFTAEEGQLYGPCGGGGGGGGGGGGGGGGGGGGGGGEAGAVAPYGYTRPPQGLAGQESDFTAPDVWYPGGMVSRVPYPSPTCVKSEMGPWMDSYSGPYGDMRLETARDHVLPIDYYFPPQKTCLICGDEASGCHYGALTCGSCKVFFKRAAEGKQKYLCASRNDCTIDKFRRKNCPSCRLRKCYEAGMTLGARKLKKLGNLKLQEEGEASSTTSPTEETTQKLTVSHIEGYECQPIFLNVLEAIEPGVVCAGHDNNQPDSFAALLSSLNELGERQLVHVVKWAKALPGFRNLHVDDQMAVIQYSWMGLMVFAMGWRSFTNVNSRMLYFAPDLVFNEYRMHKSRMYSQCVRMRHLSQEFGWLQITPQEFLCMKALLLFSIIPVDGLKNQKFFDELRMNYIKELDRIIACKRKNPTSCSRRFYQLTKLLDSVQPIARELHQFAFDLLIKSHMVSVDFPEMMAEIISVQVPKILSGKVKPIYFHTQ
Briefly: Transient transfection reporter assay in LNCaP cells expressing mutant hAR. Type of assay: cell-based. From the text:
To determine the agonist and antagonist activity of these compounds, the transient transfection reporter assay in HepG2 cells were employed. […] Apart from the testing against wild type hAR, because hAR mutation is one of the important factors for antiandrogen-resistant symptoms discovered in advance prostate cancer patients, we also employed transient transfection reporter assay in the prostate cancer cell line, LNCaP cells expressing a novel mutant hART877A.

On to `CCCCNC(=O)CCCCCCCCCCOCC1Cc2ccccc2CN1C(=O)c1cccc(F)c1` (stereo not shown) [Compound 2], for which the “Relative Estrogenic Activity” value at hERα [1] (MCF-7 cells transfected with hERα, DMSO set as 1) was 0.9. For the same molecule, the “estrogenic effect” value on hERα [1] (MCF-7 cells, hERα, compared with DMSO and tamoxifen) is given as “do not exert any estrogenic effects”. In addition, at hERα [1] (with 1 nM estradiol, 1 nM E2 used as reference (1)), the “Relative Antiestrogenic Activity at 2.5 μM” value is reported as 0.75. On hERα [2] (combined with estrogen), the “inhibitory activity against hERα dimerization in combination with estrogen” value is on record as “weak inhibitory activity”. Moreover, at hERα [2] (tested alone), the “induction of hERα dimerization, compound alone” value is on record as “did not induce the dimerization of hERα”. In addition, the “Relative Binding Affinity” value with hER is 0.287. The “proliferation effects against MDA-MB-231 cells (FIG. 6, words)” value with MDA-MB-231 cells is listed as “do not inhibit or stimulate the growth”. Besides, the “inhibition effects against MCF-7 cell proliferation” value in the assay with MCF-7 cells was “slightly lower inhibition effects than compound 6”. The activity at 5 µM with MCF-7 cells (Homo sapiens, MCF7, 72 h, MCF-7 cells, DMSO = 1, read-out: Relative Cancer Cell Proliferation Effects at 5 μM) was determined as 66%.

For the molecule `C[C@]1(O)CC[C@H]2[C@@H]3CCC4=CC(=O)CCC4=C3C=C[C@@]21C` [Compound R1881, R1881], the “agonistic effects against mutant hART877A” value at mutant hART877A is reported as “significant agonism activity”.
